# Assay results: PubChem BioAssay AID1259407 (Chemical Carcinogenesis Research Information System (CCRIS), 2018)
# The source made the active and inactive calls. The rule behind the calls is not given here.
# Tested on: CCRIS mutagenicity, Ames/micronucleus/aberration tests
# Assay: CCRIS mutagenicity studies
# [1] = Test System: AMES SALMONELLA TYPHIMURIUM, Strain/Indicator: TA100, Metabolic Activation: RAT, LIVER, S-9, AROCLOR 1254, Method: PREINCUBATION
compound,measurement,setting,value
Nc1cc([N+](=O)[O-])cc([N+](=O)[O-])c1C(=O)O,mutagenic call,"End Point: In vitro chromosomal aberrations, Test System: V79 Chinese hamster fibroblasts, Metabolic Activation: None",inactive; negative
same,mutagenic call,"End Point: In vitro micronucleus, Test System: HepG2 human hepatoma cells, Metabolic Activation: None",active; positive
same,mutagenic call,"Test System: Ames Salmonella typhimurium, Strain/Indicator: TA98, Metabolic Activation: None, Method: Standard plate",active; positive
same,mutagenic call,"Test System: Ames Salmonella typhimurium, Strain/Indicator: TA98, Metabolic Activation: Rat, Liver, S-9, Method: Standard plate",active; positive
same,mutagenic call,"Test System: Ames Salmonella typhimurium, Strain/Indicator: TA98NR, Metabolic Activation: None, Method: Standard plate",active; positive
same,mutagenic call,"Test System: Ames Salmonella typhimurium, Strain/Indicator: TA100, Metabolic Activation: None, Method: Standard plate",inactive; negative
same,mutagenic call,"Test System: Ames Salmonella typhimurium, Strain/Indicator: TA100, Metabolic Activation: Rat, Liver, S-9, Method: Standard plate",inactive; negative
Fc1cc(F)c2cccnc2c1,mutagenic call,"Test System: AMES SALMONELLA TYPHIMURIUM, Strain/Indicator: TA100, Metabolic Activation: RAT LIVER S-9, PHENOBARBITAL AND 5,6-BENZOFLAVONE, Method: PREINCUBATION",active; positive
O[C@@H]1C=Cc2c(ccc3c2sc2ccccc23)[C@H]1O,mutagenic call,[1],active; positive
O=C(N=c1sn(C(=O)c2ccc(Cl)c(Cl)c2)c2ccc([N+](=O)[O-])cc12)c1ccc(Cl)c(Cl)c1,mutagenic call,"Test System: AMES SALMONELLA TYPHIMURIUM, Strain/Indicator: TA100, Metabolic Activation: S-9, Method: STANDARD PLATE",active; positive
C=C(CN(C)C)C(=O)c1ccccc1,mutagenic call,"Test System: AMES SALMONELLA TYPHIMURIUM, Strain/Indicator: TA97A, Metabolic Activation: NONE, Method: SPOT TEST",inactive; negative
same,mutagenic call,"Test System: AMES SALMONELLA TYPHIMURIUM, Strain/Indicator: TA97A, Metabolic Activation: RAT LIVER S-9, Method: SPOT TEST",inactive; negative
same,mutagenic call,"Test System: AMES SALMONELLA TYPHIMURIUM, Strain/Indicator: TA98, Metabolic Activation: NONE, Method: SPOT TEST",inactive; negative
same,mutagenic call,"Test System: AMES SALMONELLA TYPHIMURIUM, Strain/Indicator: TA98, Metabolic Activation: RAT LIVER S-9, Method: SPOT TEST",inactive; negative
same,mutagenic call,"Test System: AMES SALMONELLA TYPHIMURIUM, Strain/Indicator: TA100, Metabolic Activation: NONE, Method: SPOT TEST",inactive; negative
same,mutagenic call,"Test System: AMES SALMONELLA TYPHIMURIUM, Strain/Indicator: TA100, Metabolic Activation: RAT LIVER S-9, Method: SPOT TEST",active; positive
same,mutagenic call,"Test System: AMES SALMONELLA TYPHIMURIUM, Strain/Indicator: TA102, Metabolic Activation: NONE, Method: SPOT TEST",inactive; negative
same,mutagenic call,"Test System: AMES SALMONELLA TYPHIMURIUM, Strain/Indicator: TA102, Metabolic Activation: RAT LIVER S-9, Method: SPOT TEST",inactive; negative
same,mutagenic call,"Test System: AMES SALMONELLA TYPHIMURIUM, Strain/Indicator: TA104, Metabolic Activation: NONE, Method: SPOT TEST",inactive; negative
same,mutagenic call,"Test System: AMES SALMONELLA TYPHIMURIUM, Strain/Indicator: TA104, Metabolic Activation: RAT LIVER S-9, Method: SPOT TEST",inactive; negative
same,mutagenic call,"Test System: AMES SALMONELLA TYPHIMURIUM, Strain/Indicator: TA1535, Metabolic Activation: NONE, Method: SPOT TEST",inactive; negative
same,mutagenic call,"Test System: AMES SALMONELLA TYPHIMURIUM, Strain/Indicator: TA1538, Metabolic Activation: NONE, Method: SPOT TEST",inactive; negative
C=CC1CC=CCC1 (configuration not stated),mutagenic call,"Test System: AMES SALMONELLA TYPHIMURIUM, Strain/Indicator: TA98, Metabolic Activation: HAMSTER, LIVER, S-9, AROCLOR 1254 (10%), Method: PREINCUBATION",inactive; negative
same,mutagenic call,"Test System: AMES SALMONELLA TYPHIMURIUM, Strain/Indicator: TA98, Metabolic Activation: HAMSTER, LIVER, S-9, AROCLOR 1254, Method: PREINCUBATION",inactive; negative
same,mutagenic call,"Test System: AMES SALMONELLA TYPHIMURIUM, Strain/Indicator: TA98, Metabolic Activation: NONE, Method: PREINCUBATION",inactive; negative
same,mutagenic call,"Test System: AMES SALMONELLA TYPHIMURIUM, Strain/Indicator: TA98, Metabolic Activation: RAT, LIVER, S-9, AROCLOR 1254 (10%), Method: PREINCUBATION",inactive; negative
same,mutagenic call,"Test System: AMES SALMONELLA TYPHIMURIUM, Strain/Indicator: TA98, Metabolic Activation: RAT, LIVER, S-9, AROCLOR 1254, Method: PREINCUBATION",inactive; negative
same,mutagenic call,"Test System: AMES SALMONELLA TYPHIMURIUM, Strain/Indicator: TA100, Metabolic Activation: HAMSTER, LIVER, S-9, AROCLOR 1254 (10%), Method: PREINCUBATION",inactive; negative
same,mutagenic call,"Test System: AMES SALMONELLA TYPHIMURIUM, Strain/Indicator: TA100, Metabolic Activation: HAMSTER, LIVER, S-9, AROCLOR 1254, Method: PREINCUBATION",inactive; negative
same,mutagenic call,"Test System: AMES SALMONELLA TYPHIMURIUM, Strain/Indicator: TA100, Metabolic Activation: NONE, Method: PREINCUBATION",inactive; negative
same,mutagenic call,"Test System: AMES SALMONELLA TYPHIMURIUM, Strain/Indicator: TA100, Metabolic Activation: RAT, LIVER, S-9, AROCLOR 1254 (10%), Method: PREINCUBATION",inactive; negative
same,mutagenic call,[1],inactive; negative
same,mutagenic call,"Test System: AMES SALMONELLA TYPHIMURIUM, Strain/Indicator: TA1535, Metabolic Activation: HAMSTER, LIVER, S-9, AROCLOR 1254 (10%), Method: PREINCUBATION",inactive; negative
same,mutagenic call,"Test System: AMES SALMONELLA TYPHIMURIUM, Strain/Indicator: TA1535, Metabolic Activation: HAMSTER, LIVER, S-9, AROCLOR 1254, Method: PREINCUBATION",inactive; negative
same,mutagenic call,"Test System: AMES SALMONELLA TYPHIMURIUM, Strain/Indicator: TA1535, Metabolic Activation: NONE, Method: PREINCUBATION",inactive; negative
same,mutagenic call,"Test System: AMES SALMONELLA TYPHIMURIUM, Strain/Indicator: TA1535, Metabolic Activation: RAT, LIVER, S-9, AROCLOR 1254 (10%), Method: PREINCUBATION",inactive; negative
same,mutagenic call,"Test System: AMES SALMONELLA TYPHIMURIUM, Strain/Indicator: TA1535, Metabolic Activation: RAT, LIVER, S-9, AROCLOR 1254, Method: PREINCUBATION",inactive; negative
same,mutagenic call,"Test System: AMES SALMONELLA TYPHIMURIUM, Strain/Indicator: TA1537, Metabolic Activation: HAMSTER, LIVER, S-9, AROCLOR 1254 (10%), Method: PREINCUBATION",inactive; negative
same,mutagenic call,"Test System: AMES SALMONELLA TYPHIMURIUM, Strain/Indicator: TA1537, Metabolic Activation: HAMSTER, LIVER, S-9, AROCLOR 1254, Method: PREINCUBATION",inactive; negative
same,mutagenic call,"Test System: AMES SALMONELLA TYPHIMURIUM, Strain/Indicator: TA1537, Metabolic Activation: NONE, Method: PREINCUBATION",inactive; negative
same,mutagenic call,"Test System: AMES SALMONELLA TYPHIMURIUM, Strain/Indicator: TA1537, Metabolic Activation: RAT, LIVER, S-9, AROCLOR 1254 (10%), Method: PREINCUBATION",inactive; negative
same,mutagenic call,"Test System: AMES SALMONELLA TYPHIMURIUM, Strain/Indicator: TA1537, Metabolic Activation: RAT, LIVER, S-9, AROCLOR 1254, Method: PREINCUBATION",inactive; negative
COc1ccc2nc3occc3c(OC)c2c1,mutagenic call,"Test System: AMES SALMONELLA TYPHIMURIUM, Strain/Indicator: TA98, Metabolic Activation: RAT, LIVER, S-9, PHENOBARBITAL, Method: STANDARD PLATE",active; positive
same,mutagenic call,"Test System: AMES SALMONELLA TYPHIMURIUM, Strain/Indicator: TA100, Metabolic Activation: RAT, LIVER, S-9, PHENOBARBITAL, Method: STANDARD PLATE",active; positive
O=C1c2ccc(O)cc2C(=O)c2ccc(O)cc21,mutagenic call,"Test System: AMES SALMONELLA TYPHIMURIUM, Strain/Indicator: TA98, Metabolic Activation: NONE, Method: STANDARD PLATE",inactive; negative
same,mutagenic call,"Test System: AMES SALMONELLA TYPHIMURIUM, Strain/Indicator: TA98, Metabolic Activation: RAT, LIVER, S-9, AROCLOR 1254, Method: STANDARD PLATE",inactive; negative
same,mutagenic call,"Test System: AMES SALMONELLA TYPHIMURIUM, Strain/Indicator: TA100, Metabolic Activation: NONE, Method: STANDARD PLATE",inactive; negative
same,mutagenic call,"Test System: AMES SALMONELLA TYPHIMURIUM, Strain/Indicator: TA100, Metabolic Activation: RAT, LIVER, S-9, AROCLOR 1254, Method: STANDARD PLATE",inactive; negative
same,mutagenic call,"Test System: AMES SALMONELLA TYPHIMURIUM, Strain/Indicator: TA1535, Metabolic Activation: NONE, Method: STANDARD PLATE",inactive; negative
same,mutagenic call,"Test System: AMES SALMONELLA TYPHIMURIUM, Strain/Indicator: TA1535, Metabolic Activation: RAT, LIVER, S-9, AROCLOR 1254, Method: STANDARD PLATE",inactive; negative
same,mutagenic call,"Test System: AMES SALMONELLA TYPHIMURIUM, Strain/Indicator: TA1538, Metabolic Activation: NONE, Method: STANDARD PLATE",inactive; negative
same,mutagenic call,"Test System: AMES SALMONELLA TYPHIMURIUM, Strain/Indicator: TA1538, Metabolic Activation: RAT, LIVER, S-9, AROCLOR 1254, Method: STANDARD PLATE",inactive; negative
